Laboratory results as given in patent US12552780B2, “Small molecule compound serving as jak kinase inhibitor, and use thereof” (TECHNODERMA MEDICINES, INC., priority 2020, dated 2026).
Read-outs that look alike come from different tables or passages of the source.

Legend:
Type in all cases: biochemical
JAK1 = JAK1 (Homo sapiens, UniProt P23458); experiment: Detection of enzyme activity inhibition of JAK kinases (ULight-JAK substrate, Eu-antibody), JAK1; details: JAK1 20 nM, ATP 40 μM, substrate 50 nM, 2 hours reaction at room temperature, read-out: JAK1 half-maximum inhibitory concentration (IC50)
Sequence of JAK1 (P23458 whole entry): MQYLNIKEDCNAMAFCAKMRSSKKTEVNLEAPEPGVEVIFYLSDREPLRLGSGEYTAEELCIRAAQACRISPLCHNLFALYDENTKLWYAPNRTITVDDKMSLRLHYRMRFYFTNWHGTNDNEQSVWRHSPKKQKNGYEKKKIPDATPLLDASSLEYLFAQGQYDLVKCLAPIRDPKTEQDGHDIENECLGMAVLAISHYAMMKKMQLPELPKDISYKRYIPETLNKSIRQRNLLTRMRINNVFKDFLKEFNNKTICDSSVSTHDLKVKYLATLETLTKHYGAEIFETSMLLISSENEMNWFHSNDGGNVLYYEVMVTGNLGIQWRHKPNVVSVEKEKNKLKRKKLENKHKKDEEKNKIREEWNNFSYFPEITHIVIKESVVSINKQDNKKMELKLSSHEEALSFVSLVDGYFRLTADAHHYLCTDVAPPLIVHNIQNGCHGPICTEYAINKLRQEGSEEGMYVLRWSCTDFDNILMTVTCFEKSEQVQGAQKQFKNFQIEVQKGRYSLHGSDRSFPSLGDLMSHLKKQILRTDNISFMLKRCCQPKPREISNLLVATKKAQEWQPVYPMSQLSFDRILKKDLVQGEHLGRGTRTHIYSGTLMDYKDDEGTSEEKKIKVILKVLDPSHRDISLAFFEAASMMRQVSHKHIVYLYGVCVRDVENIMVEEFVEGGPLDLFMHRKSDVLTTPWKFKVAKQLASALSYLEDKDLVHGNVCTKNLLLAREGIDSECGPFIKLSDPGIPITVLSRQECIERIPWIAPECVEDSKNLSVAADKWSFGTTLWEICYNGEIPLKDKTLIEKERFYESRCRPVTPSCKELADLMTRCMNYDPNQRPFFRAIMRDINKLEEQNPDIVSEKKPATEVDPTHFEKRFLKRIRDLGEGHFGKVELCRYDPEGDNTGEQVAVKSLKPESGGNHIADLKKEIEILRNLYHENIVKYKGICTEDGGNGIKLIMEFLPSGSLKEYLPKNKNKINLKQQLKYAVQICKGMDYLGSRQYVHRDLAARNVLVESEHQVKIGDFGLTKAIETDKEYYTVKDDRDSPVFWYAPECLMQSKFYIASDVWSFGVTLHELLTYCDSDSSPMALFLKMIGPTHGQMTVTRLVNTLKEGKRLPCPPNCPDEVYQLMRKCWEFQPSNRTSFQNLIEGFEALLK
Procedure: (§1) Kinase reaction buffer: The kinase reaction buffer was prepared with the following components: 50 mM HEPES, pH 7.5, 1 mM EGTA, 10 mM MgCl2, 2 mM DTT, and 0.01% Tween20. 1× test buffer: A test buffer was prepared, and the 10× test buffer was diluted with deionized water (deionized water: test buffer=9:1) to obtain the 1× test buffer. 4× kinase solution: JAK kinase was diluted with a kinase reaction buffer to a final concentration of 4× (JAK1:80 nM, JAK2/JAK3/Tyk2:4 nM). 4× substrate solution: ULight™-JAK (Tyr1023) substrate was diluted with the kinase reaction buffer to 200 nM (final concentration: 50 nM). 4× ATP solution: ATP was diluted with the kinase reaction buffer to a final concentration of 4× (JAK1:160 μM, JAK2/JAK3/Tyk2: 40 μM). 4× test compound solution: The compounds to be tested were dissolved in DMSO to prepare 10 mM stock solutions, which were diluted to have the desired concentrations through 3-fold gradient dilution, 10 concentrations were set for each compound, and final concentrations of the test compounds ranged from 10 μM to 0.5 nM. 4× enzyme reaction termination solution: EDTA was dissolved in a 1× test buffer to 40 mM (final concentration of EDTA: 10 mM). 4× test antibody solution: Eu-labeled test antibodies (anti-phosphotyrosine (PT66)) were diluted with 1× test buffer to 8 nM (final concentration of the antibodies: 2 nM). 2.5 μL of the 4× kinase solution and 2.5 μL of each of the 4× test compound solutions having different concentrations were added into a 384-well microwell plate sequentially, with 2 duplicate wells set for each concentration, and an enzyme solution blank control group and a negative control group (DMSO group) were also provided. The 384-well plate was oscillated to mix the enzyme and the compound uniformly, centrifuged at 1000 rpm for 1 minute, and incubated at room temperature for 60 minutes. 2.5 μL of the 4× substrate solution was added into the 384-well plate, and centrifuged at 1000 rpm for 1 minute. 2.5 μL of the 4× ATP solution was added into the 384-well plate, and centrifuged at 1000 rpm for 1 minute to start the enzyme reaction. JAK1 reacted at room temperature for 2 hours, and JAK2/JAK3/Tyk2 reacted at room temperature for 1 hour. The final concentration of each component in the JAK1 reaction was: JAK1:20 nM; substrate: 50 nM; and ATP: 40 μM. The final concentrations of the test compounds ranged from 10 μM to 0.5 nM. The final concentration of each component in the JAK2/JAK3/Tyk2 reaction was: JAK2:1 nM; substrate: 50 nM; and ATP: 10 μM. The final concentrations of the test compounds ranged from 10 μM to 0.5 nM. After the enzyme reaction ended, 5 μL of the 4× enzyme reaction termination solution was added into each well of the 384-well plate, centrifuged at 1000 rpm for 1 minute, and incubated at room temperature for 5 minutes. 5 μL of the 4× test antibody solution (final concentration of the test antibodies was 2 nM) was added into each well of the 384-well plate, centrifuged at 1000 rpm for 1 minute, and incubated at room temperature for 1 hour. After incubation of the antibodies, a signal value of each well was measured with Envision plate reader. Assuming that an inhibition rate of the enzyme solution blank control group was 100% and an inhibition rate of the negative control group (DMSO group) was 0%, an inhibition rate corresponding to each concentration was calculated. Nonlinear regression analysis was performed on the concentration logarithm values and corresponding percentage inhibition rates of the test compounds in GraphPad Prism software to obtain the half-maximum inhibitory concentrations (IC50) of the test compounds.

JAK2 = JAK2 (Homo sapiens, UniProt O60674); experiment: Detection of enzyme activity inhibition of JAK kinases (ULight-JAK substrate, Eu-antibody), JAK2; details: JAK2 1 nM, ATP 10 μM, substrate 50 nM, 1 hour reaction at room temperature, read-out: JAK2 half-maximum inhibitory concentration (IC50)
Sequence of JAK2 (O60674 whole entry): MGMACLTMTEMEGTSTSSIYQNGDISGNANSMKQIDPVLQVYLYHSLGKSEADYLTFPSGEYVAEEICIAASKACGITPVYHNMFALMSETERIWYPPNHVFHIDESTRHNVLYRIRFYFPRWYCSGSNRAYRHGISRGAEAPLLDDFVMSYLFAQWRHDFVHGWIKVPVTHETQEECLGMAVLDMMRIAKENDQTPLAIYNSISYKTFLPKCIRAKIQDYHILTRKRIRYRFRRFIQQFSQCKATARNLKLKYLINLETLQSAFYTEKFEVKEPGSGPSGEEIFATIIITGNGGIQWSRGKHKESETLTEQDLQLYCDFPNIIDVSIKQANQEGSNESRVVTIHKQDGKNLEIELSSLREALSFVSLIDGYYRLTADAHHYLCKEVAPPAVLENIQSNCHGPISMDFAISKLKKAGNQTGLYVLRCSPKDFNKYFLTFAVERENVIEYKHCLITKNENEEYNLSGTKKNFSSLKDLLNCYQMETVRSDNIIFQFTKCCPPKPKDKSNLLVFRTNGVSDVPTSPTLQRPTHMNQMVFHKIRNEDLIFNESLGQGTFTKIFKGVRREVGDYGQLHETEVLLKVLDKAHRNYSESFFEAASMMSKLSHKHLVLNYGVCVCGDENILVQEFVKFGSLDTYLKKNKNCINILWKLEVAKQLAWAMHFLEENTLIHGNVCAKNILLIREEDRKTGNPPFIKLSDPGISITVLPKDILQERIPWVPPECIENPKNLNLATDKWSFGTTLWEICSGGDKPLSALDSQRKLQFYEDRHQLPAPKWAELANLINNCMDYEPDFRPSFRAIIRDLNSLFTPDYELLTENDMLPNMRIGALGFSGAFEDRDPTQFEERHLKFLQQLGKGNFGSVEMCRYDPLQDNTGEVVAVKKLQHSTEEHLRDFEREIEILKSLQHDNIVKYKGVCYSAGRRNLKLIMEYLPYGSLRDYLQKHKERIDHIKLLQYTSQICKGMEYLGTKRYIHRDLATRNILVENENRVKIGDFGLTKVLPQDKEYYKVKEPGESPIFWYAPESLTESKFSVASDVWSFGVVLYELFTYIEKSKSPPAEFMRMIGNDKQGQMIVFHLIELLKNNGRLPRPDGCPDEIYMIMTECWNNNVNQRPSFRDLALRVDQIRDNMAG
Procedure: as §1

JAK3 = target: T1, JAK3 (Homo sapiens, UniProt P52333); experiment: Detection of enzyme activity inhibition of JAK kinases (ULight-JAK substrate, Eu-antibody), JAK3; details: ATP 10 μM, substrate 50 nM, 1 hour reaction at room temperature; read-out: JAK3 half-maximum inhibitory concentration (IC50)
T1 sequence (P52333 1-1124): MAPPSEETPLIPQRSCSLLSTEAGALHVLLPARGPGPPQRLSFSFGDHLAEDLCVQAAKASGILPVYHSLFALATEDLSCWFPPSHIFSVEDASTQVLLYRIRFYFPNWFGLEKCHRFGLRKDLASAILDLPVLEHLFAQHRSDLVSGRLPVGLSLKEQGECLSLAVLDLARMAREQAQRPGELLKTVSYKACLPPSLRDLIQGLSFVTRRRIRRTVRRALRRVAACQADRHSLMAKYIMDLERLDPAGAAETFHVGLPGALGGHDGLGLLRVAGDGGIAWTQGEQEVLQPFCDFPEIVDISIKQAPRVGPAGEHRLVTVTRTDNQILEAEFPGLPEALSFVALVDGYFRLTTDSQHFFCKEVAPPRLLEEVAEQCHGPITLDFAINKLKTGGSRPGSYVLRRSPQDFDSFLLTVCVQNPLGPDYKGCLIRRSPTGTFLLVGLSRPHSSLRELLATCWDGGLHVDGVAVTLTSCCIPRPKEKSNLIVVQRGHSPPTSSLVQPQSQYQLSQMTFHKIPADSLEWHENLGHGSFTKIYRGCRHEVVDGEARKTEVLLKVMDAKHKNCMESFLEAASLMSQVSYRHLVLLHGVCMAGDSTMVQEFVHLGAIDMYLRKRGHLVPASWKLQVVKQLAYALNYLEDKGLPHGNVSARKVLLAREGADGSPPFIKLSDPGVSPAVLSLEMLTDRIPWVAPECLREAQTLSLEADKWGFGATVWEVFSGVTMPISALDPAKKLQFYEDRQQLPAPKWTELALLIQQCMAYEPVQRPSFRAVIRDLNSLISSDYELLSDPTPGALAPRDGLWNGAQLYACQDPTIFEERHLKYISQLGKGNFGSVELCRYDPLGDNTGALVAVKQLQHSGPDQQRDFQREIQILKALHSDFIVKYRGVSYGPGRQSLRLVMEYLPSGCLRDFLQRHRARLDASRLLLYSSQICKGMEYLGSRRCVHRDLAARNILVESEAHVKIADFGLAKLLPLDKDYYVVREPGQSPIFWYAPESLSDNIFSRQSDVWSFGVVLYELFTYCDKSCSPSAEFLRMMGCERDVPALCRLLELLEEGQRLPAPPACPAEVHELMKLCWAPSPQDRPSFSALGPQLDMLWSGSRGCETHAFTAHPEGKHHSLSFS
Procedure: as §1

Tyk2 = Tyk2 (Homo sapiens, UniProt P29597); experiment: Detection of enzyme activity inhibition of JAK kinases (ULight-JAK substrate, Eu-antibody), Tyk2; details: ATP 10 μM, substrate 50 nM, 1 hour reaction at room temperature, read-out: Tyk2 half-maximum inhibitory concentration (IC50)
Sequence of Tyk2 (P29597 whole entry): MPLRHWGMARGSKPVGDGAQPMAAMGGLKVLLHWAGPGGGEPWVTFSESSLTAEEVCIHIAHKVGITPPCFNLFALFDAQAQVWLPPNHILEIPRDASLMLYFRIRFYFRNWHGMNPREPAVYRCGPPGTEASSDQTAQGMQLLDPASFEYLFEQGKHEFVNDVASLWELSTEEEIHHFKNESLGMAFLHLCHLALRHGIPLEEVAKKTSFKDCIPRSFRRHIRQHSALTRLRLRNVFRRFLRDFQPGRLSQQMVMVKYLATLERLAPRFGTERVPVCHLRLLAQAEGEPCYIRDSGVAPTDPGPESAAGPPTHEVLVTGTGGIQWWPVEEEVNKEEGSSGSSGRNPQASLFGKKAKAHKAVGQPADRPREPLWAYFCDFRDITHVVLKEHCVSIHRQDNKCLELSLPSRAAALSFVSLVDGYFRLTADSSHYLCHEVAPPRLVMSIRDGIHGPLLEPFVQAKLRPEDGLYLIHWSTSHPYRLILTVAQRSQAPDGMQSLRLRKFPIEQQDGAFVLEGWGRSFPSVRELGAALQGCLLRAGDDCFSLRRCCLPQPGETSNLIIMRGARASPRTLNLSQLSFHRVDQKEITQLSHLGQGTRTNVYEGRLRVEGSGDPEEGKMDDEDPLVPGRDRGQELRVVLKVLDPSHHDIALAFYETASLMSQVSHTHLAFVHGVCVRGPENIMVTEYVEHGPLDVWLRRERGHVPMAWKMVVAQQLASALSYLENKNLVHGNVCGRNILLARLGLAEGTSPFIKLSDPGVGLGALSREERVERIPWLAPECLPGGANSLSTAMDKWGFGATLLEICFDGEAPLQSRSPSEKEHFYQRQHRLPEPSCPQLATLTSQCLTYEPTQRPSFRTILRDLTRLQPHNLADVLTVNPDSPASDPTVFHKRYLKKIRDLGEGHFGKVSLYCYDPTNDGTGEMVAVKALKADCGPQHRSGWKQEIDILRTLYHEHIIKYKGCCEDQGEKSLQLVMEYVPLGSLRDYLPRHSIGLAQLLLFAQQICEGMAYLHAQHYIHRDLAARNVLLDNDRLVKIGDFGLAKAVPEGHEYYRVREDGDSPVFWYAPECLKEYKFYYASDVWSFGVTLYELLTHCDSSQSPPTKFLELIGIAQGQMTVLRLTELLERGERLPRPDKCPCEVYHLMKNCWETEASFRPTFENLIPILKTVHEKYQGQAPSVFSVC
Procedure: as §1

Molecule	IC50 (JAK1) [nM]	IC50 (JAK2) [nM]	IC50 (JAK3) [nM]	IC50 (Tyk2) [nM]	IC50 (JAK1; listed as TDM-18097) [nM]	IC50 (JAK2; listed as TDM-18097) [nM]	IC50 (Tyk2; listed as TDM-18097) [nM]
CCNC(=O)c1ccc(Nc2nccc(-c3cnn(C4(CC#N)CN(C(=O)[C@@H]5CC5(F)F)C4)c3)n2)cc1 [TDM-180982, (S)-4-((4-(1-(3-(cyanomethyl)-1-(2,2-difluorocyclopropane-1-carbony)azetidn-3-yl)-1H-pyrazol-4-yl)pyrimidin-2-yl)amino)-N-ethylbenzamide]	18	22	1300	19	–	–	–
CCNC(=O)c1ccc(Nc2nccc(-c3cnn(C4(CC#N)CN(C(=O)[C@@H]5CC5(F)F)C4)c3)n2)cc1C [TDM-180983]	45	27	791	17	–	–	–
CC(CO)c1ccc(Nc2nccc(-c3ccn(C4(CC#N)CN(C(=O)[C@@H]5CC5(F)F)C4)c3)n2)cn1 (stereo partly drawn) [TDM-180996, 2-(1-((S)-2,2-difluorocyclopropane-1-carbonyl)-3-(3-(2-((6-(1-hydroxypropan-2-yl)pyridine-3-yl)amino)pyrimidin-4-yl)-1H-pyrrol-1-yl)azetidin-3-yl) acetonitrile]	55	38	843	39	–	–	–
Cc1cc(Nc2nccc(-c3cnn(C4(CC#N)CN(C(=O)[C@@H]5CC5(F)F)C4)c3)n2)cnc1C(N)=O [TDM-180986, (S)-5-((4-(1-(3-(cyanomethyl)-1-(2,2-difluorocyclopropane-1-carbonyl)azetidin-3-yl)-1H-pyrazol-4-yl)pyrimidin2-yl)amino)-3-methylpyridinolineamide]	125	52	3060	56	–	–	–
Cc1cc(Nc2nccc(-c3ccn(C4(CC#N)CN(C(=O)[C@@H]5CC5(F)F)C4)c3)n2)cnc1C(N)=O [TDM-180975, (S)-5-((4-(1-(3-(cyanomethyl)-1-(2,2-difluorocyclopropane-1-carbonyl)azetidin-3-yl)-1H-pyrrol-3-yl)pyrimidin-2-yl)amino)-3-methylpyridinolineamide]	12	7	674	8	–	–	–
CNC(=O)c1ncc(Nc2nccc(-c3cnn(C4(CC#N)CN(C(=O)[C@@H]5CC5(F)F)C4)c3)n2)cc1C [TDM-180985, (S)-5-((4-(1-(3-(cyanomethyl)-1-(2,2-difluorocyclopropane-1-carbonyl)azetidin-3-yl)-1H-pyrazol-4-yl)pyrimidin-2-yl)amino)-N,3-dimethylpyridinecarboxamide]	54	64	2370	21	–	–	–
CC(CO)c1ccc(Nc2nccc(-c3cnn(C4(CC#N)CN(C(=O)[C@@H]5CC5(F)F)C4)c3)n2)cn1 (stereo partly drawn) [TDM-180990, 2-(1-((S)-2,2-difluorocyclopropane-1-carbonyl)-3-(4-(2-((6-(1-hydroxypropan-2-yl)pyridine-3-yl)amino)pyrimidin-4-yl)-1H-pyrazol-1-yl)azetidin-3-yl)acetonitrile]	224	–	–	112	–	–	–
(S)-4-((4-(1-(3-(cyanomethyl)-1-(2,2-difluorocyclopropane-1-carbonyl)azetidin-3-yl)-1H-pyrrol-3-yi)pyrimidin-2-yl)amino)-N-ethyl-2-methylbenzamide [TDM-180978]	7	12	280	11	~10	~10	~10
CNC(=O)c1ncc(Nc2nccc(-c3ccn(C4(CC#N)CN(C(=O)[C@@H]5CC5(F)F)C4)c3)n2)cc1C [TDM-180976, (S)-5-((4-(1-(3-(cyanomethyl)-1-(2,2-difluorocyclopropane-1-carbonyl)azetidin-3-yl)-1H-pyrrol-3-yl)pyrimidin-2-yl)amino)-N,3-dimethylpyridinecarboxamide]	9	13	599	9	–	–	–
CCNC(=O)c1ccc(Nc2nccc(-c3ccn(C4(CC#N)CN(C(=O)[C@@H]5CC5(F)F)C4)c3)n2)cc1 [TDM-180973, (S)-4-((4-(1-(3-(cyanomethyl)-1-(2,2-difluorocyclopropane-1-carbonyl)azetidin-3-yl)-1H-pyrrol-3-yl)pyrimidin-2-yl)amino)-N-ethylbenzamide]	–	9	443	7	–	–	–
